Source: article PMC7497641, “Neurotropic activity and safety of methylene-cycloalkylacetate (MCA) derivative 3-(3-allyl-2-methylenecyclohexyl) propanoic acid” (ACS Chemical Neuroscience, 2020)

Legend:
Assay in all cases: PhosphoSens CSox based kinase assay
Type in all cases: biochemical
IGF1R = molecular target: T1, IGF1R (Homo sapiens, UniProt P08069); details: 5 μM HU-MCA-13
T1 construct: amino acids 959-1367, Carna (cat. & lot #: 08); purchased Carna 08-141
Text: (§1) The initial focus was to measure the modulatory activity in vitro of MCA-13 on protein kinases which were reported to be involved in induction of neurite outgrowth.[18],[43] To do this, we took advantage of a powerful method to measure the activity of recombinant protein kinases using a homogeneous and continuous (kinetic) format, where the level of chelation-enhanced fluorescence (CHEF) is directly proportional to the amount of phosphorylated, real-time sensors consisting of sulfonamido-oxine (Sox) chromophore linked to a peptide or protein substrates of selective kinases.[44] This assay is ideal for elucidating drug mechanism of action and is increasingly being applied earlier in the drug development workflow to address off target effects and/or the challenges and opportunities for next generation protein kinase inhibitors.[45] Since neurotrophins induce neurite outgrowth by activating the different tropomyosin kinase receptors (Trk), and small molecules agonists of Trk receptors can selectively activate Trks,[46] we first investigated the ability of HU-MCA-13 to modulate TRKA, TRKB and TRKC phosphorylation activities (Supporting Information, Figure S3-2). […] The TRKs constructs used in the assay contained only the intracellular kinase domain (amino acids 442–786) and therefore presently we cannot exclude that HU-MCA-13 may interact with the TRKs extracellular domain thereby inducing the conformational change required for the kinase domain activation. […] Moreover, no effects of HU-MCA-13were found on other kinases (ASK1, ERK2, JNK3, p38α, CDK5, KDR-VEGFR, AKT1, GSK3β, PDGFRβ, PKACα, PKC, CK1, IKKβ) which stimulate neurite outgrowth. Also, no effects were observed of HU-MCA-13 on kinases (EGFR, IGF1R, FGFR 1 and 2, CAMK2α,) which inhibit neurite outgrowth or calcineurin phosphatase which dephosphorylates the neurite outgrowth stimulatory protein, cofilin.[47]
(§2) MCA-13 safety b y in vitro eval uati on usi ng Phos pho Sens®C Soxb ased kinase […]
(§3) Method: Kinase Activity Measurements
(§4) Kinase activity was measured continuously using the PhosphoSens®technology (AssayQuant Technologies Inc., Marlborough, MA) according to the manufacturers’ recommendations (http://www.assayquant.com/) . This one-step homogeneous assay use s chelation-enh anced fluorescence via optimized substrate sensors unique for each kinase, containing the unnatural fluorogenic amino-acid Sox.
(§5) The following kinases which, upon stimulation or inhibition with small molecule modulators, induced neurite outgrowth, were obtained from different companies and were used in this study at the following concentrations: 2.
(§6) 25 µL final reaction volume including : 2.5 µl Sox-based substrate (10 x), 17.5 µl reaction mix with AT P, 5.0 µL Kinase [5x in EDB (Enzyme Dilution Buffer : 20 mM TRIS, pH 8.0, 0.01% Brij -35, 0.1 mM EGTA, 5% Glycerol, 1 mM DTT, 1 mg/mL Bovine Serum Albumin]. 5-45 min preincubation (all except EDB/kinase) at 30 °C of substrate in reaction mix and ATP ensuring that the progress kinetic curve for the background fluorescence w as flat. Reaction was run at 30 °C for […]
(§7) Final Reaction Conditions.
(§8) Protein kinase activity was determined in 54 mM HEPES, pH 7.5 1 mM ATP 1.2 mM DTT (none in ASK1) 0.012% Brij-35 1% glycerol 0.2 mg/ml BSA 0.52 mM EGTA (none in assays of CAMK2α, PKCε, PKCι, Calcineurin A/B) 140 µM phosphatidylserine/3.8 µM diacylglycerol (PKCε, PKCι only) 5 ng/µl calmodulin/0.4 mM CaCl2 (CAMK2α, Calcineurin A/B only) 10 mM […]
(§9) IKKβ, AKT1, GSK3β, PKCε, PKCι, PKACα, KDR, CK1δ, EGFR, ASK1, IGF1R, CAMK2α, DLK, FGFR2, FGFR1) in the presence or absence of 5 µ M H U-MCA-13 test compound. All components e xcept enzyme were equilibrated to 30 °C prior to setting up reactions run in Corning, 384-well, white flat round bottom polystyrene NBS microplates (Cat. #3824) after sealing using optically-clear adhesive film [TopSealA -Plus plate seal, PerkinElmer (Cat. #6050185)], applied with a roller to eliminate evaporation and resulting drift. Europium was added to a final […]

TRK B = molecular target: T2, TRK B (Homo sapiens, UniProt Q16620); details: 5 μM HU-MCA-13; intracellular kinase domain
T2 construct: TRKB, amino acids 456 -822, BPS Bio; purchased BPS Bio 40281 (lot 130826)
T2 sequence (Q16620 456-822): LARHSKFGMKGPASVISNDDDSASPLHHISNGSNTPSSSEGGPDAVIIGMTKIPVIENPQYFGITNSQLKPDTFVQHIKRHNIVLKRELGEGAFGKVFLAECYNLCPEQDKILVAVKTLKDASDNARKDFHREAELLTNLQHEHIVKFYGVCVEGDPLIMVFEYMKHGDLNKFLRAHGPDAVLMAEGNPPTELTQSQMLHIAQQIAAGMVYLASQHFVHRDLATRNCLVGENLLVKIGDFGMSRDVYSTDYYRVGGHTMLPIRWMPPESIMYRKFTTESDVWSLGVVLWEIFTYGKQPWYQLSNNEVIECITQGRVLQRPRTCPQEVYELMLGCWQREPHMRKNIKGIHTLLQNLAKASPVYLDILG
Text: as §1, §2, §3, §4, §5, §6, §7, §8, §9

ERK2 = molecular target: T3, ERK2 (Homo sapiens, UniProt P28482); details: 5 μM HU-MCA-13
T3 construct: ERK2, amino acids 1-360, Carna; purchased Carna 04-143
T3 sequence (P28482 whole entry, the tested form may be a part): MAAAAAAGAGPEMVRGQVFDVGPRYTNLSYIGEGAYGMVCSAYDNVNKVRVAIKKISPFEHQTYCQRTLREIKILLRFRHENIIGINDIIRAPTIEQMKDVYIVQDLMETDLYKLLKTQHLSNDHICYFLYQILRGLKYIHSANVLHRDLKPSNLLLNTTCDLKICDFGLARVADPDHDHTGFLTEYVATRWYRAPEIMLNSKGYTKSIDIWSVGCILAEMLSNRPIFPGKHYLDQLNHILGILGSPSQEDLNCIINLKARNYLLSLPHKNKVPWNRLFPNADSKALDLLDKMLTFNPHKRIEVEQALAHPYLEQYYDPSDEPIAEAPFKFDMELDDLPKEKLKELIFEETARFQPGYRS
Text: as §1, §2, §3, §4, §5, §6, §7, §8, §9

PKACα = molecular target: T4, PKACα (Homo sapiens, UniProt P17612); details: 5 μM HU-MCA-13
T4 construct: PKACα, amino acids 1 -351, Carna (cat. & lot #: 01 -127/10CBS -0315N)/; purchased Carna 01-127
Text: as §1, §2, §3, §4, §5, §6, §7, §8, §9

KDR-VEGFR = molecular target: T5, KDR-VEGFR (Homo sapiens, UniProt P35968); details: 5 μM HU-MCA-13
T5 construct: KDR, amino acids 790 -1356, Carna (cat. & lot #: 08 -191,; purchased Carna 08-191
T5 sequence (P35968 790-1356): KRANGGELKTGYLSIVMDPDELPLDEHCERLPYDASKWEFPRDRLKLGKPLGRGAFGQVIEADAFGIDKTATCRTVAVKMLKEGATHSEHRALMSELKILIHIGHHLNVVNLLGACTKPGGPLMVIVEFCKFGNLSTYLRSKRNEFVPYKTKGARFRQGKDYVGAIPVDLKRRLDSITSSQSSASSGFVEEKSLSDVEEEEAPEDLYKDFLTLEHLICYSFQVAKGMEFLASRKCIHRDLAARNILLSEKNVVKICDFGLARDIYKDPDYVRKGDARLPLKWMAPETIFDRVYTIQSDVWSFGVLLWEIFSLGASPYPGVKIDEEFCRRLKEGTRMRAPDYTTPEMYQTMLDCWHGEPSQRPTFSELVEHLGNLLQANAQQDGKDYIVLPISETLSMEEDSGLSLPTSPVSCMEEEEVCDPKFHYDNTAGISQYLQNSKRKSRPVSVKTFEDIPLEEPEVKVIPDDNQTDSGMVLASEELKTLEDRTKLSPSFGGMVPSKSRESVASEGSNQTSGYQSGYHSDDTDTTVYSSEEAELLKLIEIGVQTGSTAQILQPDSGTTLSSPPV
Text: as §1, §2, §3, §4, §5, §6, §7, §8, §9

FGFR 1 = molecular target: T6, FGFR 1 (Homo sapiens, UniProt P11362); details: 5 μM HU-MCA-13
T6 construct: 396-820, Carna (cat. & lot #: 08); purchased Carna 08-133
T6 sequence (P11362 398-822): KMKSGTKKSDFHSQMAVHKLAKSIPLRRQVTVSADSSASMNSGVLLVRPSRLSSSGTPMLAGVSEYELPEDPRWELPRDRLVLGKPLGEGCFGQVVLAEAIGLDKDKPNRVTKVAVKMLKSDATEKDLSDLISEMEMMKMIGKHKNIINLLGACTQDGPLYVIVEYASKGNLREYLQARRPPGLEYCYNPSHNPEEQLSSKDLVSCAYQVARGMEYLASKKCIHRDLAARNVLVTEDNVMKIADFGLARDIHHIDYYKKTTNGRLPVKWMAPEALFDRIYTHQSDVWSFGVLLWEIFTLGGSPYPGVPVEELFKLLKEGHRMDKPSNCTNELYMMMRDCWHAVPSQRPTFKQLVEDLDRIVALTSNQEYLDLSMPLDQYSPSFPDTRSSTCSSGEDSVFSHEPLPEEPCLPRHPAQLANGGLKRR
Text: as §1, §2, §3, §4, §5, §6, §7, §8, §9

TRKA = molecular target: T7, TRKA (Homo sapiens, UniProt P04629); details: 5 μM HU-MCA-13; intracellular kinase domain
T7 construct: purchased BPS Bio 40280 (lot 151113G)
T7 sequence (P04629 442-796): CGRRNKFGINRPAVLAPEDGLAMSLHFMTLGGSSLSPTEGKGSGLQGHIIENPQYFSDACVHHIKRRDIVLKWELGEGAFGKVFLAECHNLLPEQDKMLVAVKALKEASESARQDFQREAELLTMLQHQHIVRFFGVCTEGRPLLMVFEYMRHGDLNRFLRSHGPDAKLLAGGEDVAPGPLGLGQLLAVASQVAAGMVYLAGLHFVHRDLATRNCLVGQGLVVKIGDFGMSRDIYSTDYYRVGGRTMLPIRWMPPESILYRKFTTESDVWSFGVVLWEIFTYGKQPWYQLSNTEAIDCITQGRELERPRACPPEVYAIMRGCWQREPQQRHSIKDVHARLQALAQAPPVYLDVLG
Text: as §1, §2, §3, §4, §5, §6, §7, §8, §9

CDK5 = molecular target: T8, CDK5 (Homo sapiens, UniProt Q00535); details: 5 μM HU-MCA-13
T8 construct: CDK5/p25, amino acids 1 -292/99 -307, Carna; purchased Carna 04-106
T8 sequence (Q00535 whole entry, the tested form may be a part): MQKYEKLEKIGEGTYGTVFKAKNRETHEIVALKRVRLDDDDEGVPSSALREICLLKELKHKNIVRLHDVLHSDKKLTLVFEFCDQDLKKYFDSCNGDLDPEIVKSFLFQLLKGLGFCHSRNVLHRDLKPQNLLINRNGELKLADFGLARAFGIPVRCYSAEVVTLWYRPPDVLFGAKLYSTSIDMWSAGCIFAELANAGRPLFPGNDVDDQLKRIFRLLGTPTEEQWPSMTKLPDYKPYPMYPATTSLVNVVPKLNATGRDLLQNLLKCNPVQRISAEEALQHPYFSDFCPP
T8 sequence (Q15078 99-307 partner limits assumed): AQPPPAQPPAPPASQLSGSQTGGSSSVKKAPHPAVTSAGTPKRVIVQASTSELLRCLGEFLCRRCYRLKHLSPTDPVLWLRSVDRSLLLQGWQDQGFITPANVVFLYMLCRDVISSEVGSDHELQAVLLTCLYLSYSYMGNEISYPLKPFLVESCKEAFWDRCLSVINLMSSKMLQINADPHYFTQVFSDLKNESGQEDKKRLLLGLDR
Text: as §1, §2, §3, §4, §5, §6, §7, §8, §9

CAMK2α = molecular target: T9, CAMK2α (Homo sapiens, UniProt Q9UQM7); details: 5 μM HU-MCA-13
T9 construct: amino acids 1-478, Carna (cat. & lot #: 02)
Text: as §1, §2, §3, §4, §5, §6, §7, §8, §9

JNK3 = molecular target: T10, JNK3 (Homo sapiens, UniProt P53779); details: 5 μM HU-MCA-13
T10 construct: JNK 3, amino acids 1 -426, Carna; purchased Carna 04-150
T10 sequence (P53779 39-464): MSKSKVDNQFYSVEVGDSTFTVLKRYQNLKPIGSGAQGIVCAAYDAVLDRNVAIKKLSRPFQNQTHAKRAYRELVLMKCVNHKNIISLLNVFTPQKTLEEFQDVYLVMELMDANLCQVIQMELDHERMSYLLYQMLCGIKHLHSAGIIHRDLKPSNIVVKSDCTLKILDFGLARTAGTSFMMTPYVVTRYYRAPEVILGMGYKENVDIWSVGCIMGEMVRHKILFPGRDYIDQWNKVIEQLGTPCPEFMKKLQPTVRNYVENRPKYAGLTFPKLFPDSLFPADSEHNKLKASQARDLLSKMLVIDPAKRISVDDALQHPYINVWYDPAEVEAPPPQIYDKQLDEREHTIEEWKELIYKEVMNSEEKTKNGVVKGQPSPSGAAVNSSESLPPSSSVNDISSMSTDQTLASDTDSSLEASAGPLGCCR
Text: as §1, §2, §3, §4, §5, §6, §7, §8, §9

EGFR = molecular target: T11, EGFR (Homo sapiens, UniProt P00533); details: 5 μM HU-MCA-13
T11 construct: amino acids 668-1210, BPS Bio (cat. & lot #: 40187,; purchased BPS Bio 40187
T11 sequence (P00533 668-1210): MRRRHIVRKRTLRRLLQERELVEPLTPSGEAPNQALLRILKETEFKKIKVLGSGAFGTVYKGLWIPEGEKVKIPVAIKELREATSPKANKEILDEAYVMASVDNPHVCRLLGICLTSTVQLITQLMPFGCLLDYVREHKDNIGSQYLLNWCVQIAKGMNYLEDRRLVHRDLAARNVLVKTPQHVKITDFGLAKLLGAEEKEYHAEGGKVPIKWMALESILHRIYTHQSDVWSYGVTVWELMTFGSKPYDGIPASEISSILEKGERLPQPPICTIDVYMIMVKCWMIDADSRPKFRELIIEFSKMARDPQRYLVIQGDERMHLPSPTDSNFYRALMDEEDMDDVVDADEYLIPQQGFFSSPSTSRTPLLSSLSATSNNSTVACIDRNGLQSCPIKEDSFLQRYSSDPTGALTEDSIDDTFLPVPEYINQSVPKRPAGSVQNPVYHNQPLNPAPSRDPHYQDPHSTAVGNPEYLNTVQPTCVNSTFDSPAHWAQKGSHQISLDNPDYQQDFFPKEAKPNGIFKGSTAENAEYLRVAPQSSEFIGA
Text: as §1, §2, §3, §4, §5, §6, §7, §8, §9

CK1 = molecular target: T12, CK1 (Homo sapiens, UniProt P48730); details: 5 μM HU-MCA-13
T12 construct: CK1δ, amino acids 1 -294, Carna; purchased Carna 03-103
T12 sequence (P48730 1-294): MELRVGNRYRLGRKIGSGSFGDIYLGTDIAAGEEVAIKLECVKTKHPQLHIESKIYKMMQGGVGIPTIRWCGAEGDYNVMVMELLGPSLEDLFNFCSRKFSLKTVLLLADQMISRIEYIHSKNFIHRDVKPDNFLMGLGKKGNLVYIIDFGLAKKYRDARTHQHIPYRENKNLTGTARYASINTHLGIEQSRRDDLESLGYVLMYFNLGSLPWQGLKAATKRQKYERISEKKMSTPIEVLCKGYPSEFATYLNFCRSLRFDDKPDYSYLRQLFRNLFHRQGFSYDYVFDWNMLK
Text: as §1, §2, §3, §4, §5, §6, §7, §8, §9

PDGFRβ = molecular target: T13, PDGFRβ (Homo sapiens, UniProt P09619); details: 5 μM HU-MCA-13
T13 construct: PDGFRβ, amino acids 557 -1106, Carna; purchased Carna 08-158
T13 sequence (P09619 557-1106): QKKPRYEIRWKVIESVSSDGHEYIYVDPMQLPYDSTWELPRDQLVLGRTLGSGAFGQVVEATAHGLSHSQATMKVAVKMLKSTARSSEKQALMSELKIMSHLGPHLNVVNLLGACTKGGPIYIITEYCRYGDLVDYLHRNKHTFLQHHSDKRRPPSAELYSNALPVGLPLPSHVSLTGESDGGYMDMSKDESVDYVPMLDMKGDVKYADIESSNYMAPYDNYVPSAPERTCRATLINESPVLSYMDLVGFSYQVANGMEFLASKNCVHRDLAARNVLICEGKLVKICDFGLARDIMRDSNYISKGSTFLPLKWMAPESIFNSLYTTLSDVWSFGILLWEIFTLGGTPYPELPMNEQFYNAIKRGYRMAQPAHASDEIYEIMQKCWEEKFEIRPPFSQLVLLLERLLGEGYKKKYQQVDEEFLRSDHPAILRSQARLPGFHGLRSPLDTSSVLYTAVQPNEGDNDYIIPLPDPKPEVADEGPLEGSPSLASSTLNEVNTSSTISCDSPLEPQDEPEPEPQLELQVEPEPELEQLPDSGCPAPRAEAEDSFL
Text: as §1, §2, §3, §4, §5, §6, §7, §8, §9

T1 sequence (P08069 959-1367): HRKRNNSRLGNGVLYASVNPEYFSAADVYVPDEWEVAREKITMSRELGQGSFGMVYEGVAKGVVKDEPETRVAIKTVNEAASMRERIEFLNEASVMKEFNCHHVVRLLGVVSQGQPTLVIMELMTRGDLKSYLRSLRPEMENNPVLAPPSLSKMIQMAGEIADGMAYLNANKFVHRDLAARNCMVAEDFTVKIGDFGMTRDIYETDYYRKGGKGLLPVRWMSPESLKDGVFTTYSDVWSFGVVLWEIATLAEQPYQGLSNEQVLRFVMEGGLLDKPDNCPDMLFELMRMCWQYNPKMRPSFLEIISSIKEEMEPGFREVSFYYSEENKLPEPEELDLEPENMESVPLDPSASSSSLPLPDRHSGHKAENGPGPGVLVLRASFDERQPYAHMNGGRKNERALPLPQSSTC

C=CCC1CCCC(CCC(=O)O)C1=C (stereo not shown) [HU-MCA-13, 3-(3-allyl-2-methylenecyclohexyl)propanoic acid]
no effects: effect on kinase activity (IGF1R) | modulation of phosphorylation activity (TRK B) | effect on kinase activity (ERK2) | effect on kinase activity (PKACα) | effect on kinase activity (KDR-VEGFR) | effect on kinase activity (FGFR 1) | modulation of phosphorylation activity (TRKA) | effect on kinase activity (CDK5) | effect on kinase activity (CAMK2α) | effect on kinase activity (JNK3) | effect on kinase activity (EGFR) | effect on kinase activity (CK1) | effect on kinase activity (PDGFRβ)
